Assays:
[1] = tested on: trinitrobenzene sulfonic acid-induced colitis; settings: in vivo; cited from earlier work
[2] = tested on: steroid-resistant leukemia cells; assay: Steroid-resistant leukemia cells: cell killing and NOTCH levels; format: cell-based; settings: GSI alone: 1 nM PF-3084014 or 25 nM BMS-906024
[3] = 20-30 μM; cited from earlier work
[4] = tested on: ARG-1, iNOS, COX2; assay: Immunoblot of ARG-1, iNOS, COX2 and related factors in bone marrow-derived MDSCs; format: cell-based, mouse; settings: day 2 to day 4 of differentiation
Text: (I) Positive control for PARP-1 trapping.
Cell fractionation, protein extraction and immunoblot analysis—Tumor tissues or cells were harvested and homogenized in RIPA lysis buffer (Santa Cruz Biotechnology) containing a cocktail of protease and phosphatase inhibitors on ice. Nuclear fractions were isolated as described (35) and the remaining chromatin pellets were washed then suspended in an isotonic buffer followed by sonication. […] Protein expression signals developed by ECL (Pierce, ThermoFisher Scientific) were determined by a G:Box Gel Image Analysis System (Syngene, Cambridge, UK) equipped with the GeneSys image capture software.

[5] = tested on: bone marrow-derived MDSCs; assay: Bone marrow-derived MDSC differentiation in vitro: viability and CD11b/Gr1 phenotype by FACS; settings: 1 μM
[6] = in vivo; cited from earlier work

In the case of `NC(=O)c1cccc(N)c1` [3-aminobenzamide], the colitis [1] is listed as “protection”.
In the case of `CN1C(=O)[C@@H](NC(=O)[C@H](CCC(F)(F)F)[C@H](CCC(F)(F)F)C(N)=O)N=C(c2ccccc2)c2ccccc21` [BMS-906024], the “NOTCH1 levels or cell proliferation of leukemia cells” value [2] is reported as “do not have major effects”.
For `CCC[C@H](N[C@H]1CCc2cc(F)cc(F)c2C1)C(=O)Nc1cn(C(C)(C)CNCC(C)(C)C)cn1` [PF-3084014], the “NOTCH1 levels or cell proliferation of leukemia cells” value [2] was “do not have major effects”.
In the case of `O=c1[nH]c2sccc2c2ccccc12` [TIQ-A], the cytotoxicity [3] is listed as “cytotoxic”.
In the case of `NC(=O)c1cccc2cn(-c3ccc([C@@H]4CCCNC4)cc3)nc12` [niraparib], the “expression of Arg1 in BM-MDSCs” value ([4]; 4 nM) is reported as “blocked expression of Arg1”.
In the case of `CNCc1ccc(-c2[nH]c3cc(F)cc4c3c2CCNC4=O)cc1` [rucaparib], the “MDSC population (CD11b+/Gr1+) at day 4” value [5] is reported as “appears to increase MDSC population” and the “expression of Arg1 in BM-MDSCs” value ([4]; 4 nM) is reported as “blocked expression of Arg1”.
For `Cn1ncnc1[C@H]1c2n[nH]c(=O)c3cc(F)cc(c23)N[C@@H]1c1ccc(F)cc1` [talazoparib], the maximum tolerated dose [6] is listed as 1 mg/day and the “expression of Arg1 in BM-MDSCs” value ([4]; 0.4 nM) is listed as “blocked expression of Arg1”.
In the case of `C[C@]1(c2nc3c(C(N)=O)cccc3[nH]2)CCCN1` [velaparib], the “expression of Arg1 in BM-MDSCs” value ([4]; 4 nM) is reported as “blocked expression of Arg1”.

Source: patent US12121518B2, “PARP-1 and methods of use thereof” (The Board of Supervisors of Louisiana State University and …, priority 2017, dated 2024)
